Here are results for seven molecules from ChEMBL document CHEMBL1135101, “Combinatorial synthesis of 3-(amidoalkyl) and 3-(aminoalkyl)-2-arylindole derivatives: discovery of potent ligands for a variety of G-protein coupled receptors” (Bioorg Med Chem Lett, 2002).

The structures appear in SMILES notation.

The target in experiment [1] is Melanocortin receptor 4 (Homo sapiens) (UniProt P32245). Nature of the experiment: Binding affinity towards MCR-4 receptor.
Experiment [2] has as its target 5-hydroxytryptamine receptor 7 (Homo sapiens) (UniProt P34969). Kind of experiment: Binding affinity towards 5-hydroxytryptamine 7 receptor.
In experiment [3] the target is 5-hydroxytryptamine receptor 6 (Homo sapiens) (UniProt P50406). Nature of the experiment: Binding affinity towards human 5-hydroxytryptamine 6 receptor.
Chain of 5-hydroxytryptamine receptor 6 (Homo sapiens) (P50406 whole entry): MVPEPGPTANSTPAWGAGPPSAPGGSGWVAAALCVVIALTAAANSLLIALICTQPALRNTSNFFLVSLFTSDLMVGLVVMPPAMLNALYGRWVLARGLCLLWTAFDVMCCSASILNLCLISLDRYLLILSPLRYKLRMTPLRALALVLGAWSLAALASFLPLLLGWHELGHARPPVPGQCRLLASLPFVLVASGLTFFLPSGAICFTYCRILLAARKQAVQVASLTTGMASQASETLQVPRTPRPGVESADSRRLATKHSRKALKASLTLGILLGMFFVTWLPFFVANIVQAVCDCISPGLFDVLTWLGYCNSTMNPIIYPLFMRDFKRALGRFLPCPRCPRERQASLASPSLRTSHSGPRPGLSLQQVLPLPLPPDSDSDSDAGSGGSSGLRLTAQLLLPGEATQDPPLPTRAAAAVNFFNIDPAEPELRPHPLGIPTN
For experiment [4], the target named is 5-hydroxytryptamine receptor 5A (Homo sapiens) (UniProt P47898). Nature of the experiment: Binding affinity towards 5-HT5a receptor.
Chain of 5-hydroxytryptamine receptor 5A (Homo sapiens) (P47898 whole entry): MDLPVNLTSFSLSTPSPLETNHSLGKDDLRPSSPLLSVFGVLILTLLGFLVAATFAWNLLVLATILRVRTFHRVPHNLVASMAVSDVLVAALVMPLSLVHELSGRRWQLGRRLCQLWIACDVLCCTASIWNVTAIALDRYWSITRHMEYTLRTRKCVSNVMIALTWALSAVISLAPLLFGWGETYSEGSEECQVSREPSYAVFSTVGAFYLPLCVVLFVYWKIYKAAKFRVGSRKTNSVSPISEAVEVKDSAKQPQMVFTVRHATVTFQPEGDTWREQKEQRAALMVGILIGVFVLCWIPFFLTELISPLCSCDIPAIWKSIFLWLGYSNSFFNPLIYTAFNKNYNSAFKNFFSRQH
In experiment [5] the target is T1, 5-hydroxytryptamine receptor 1A (Homo sapiens) (UniProt P08908).
T1 sequence (whole entry): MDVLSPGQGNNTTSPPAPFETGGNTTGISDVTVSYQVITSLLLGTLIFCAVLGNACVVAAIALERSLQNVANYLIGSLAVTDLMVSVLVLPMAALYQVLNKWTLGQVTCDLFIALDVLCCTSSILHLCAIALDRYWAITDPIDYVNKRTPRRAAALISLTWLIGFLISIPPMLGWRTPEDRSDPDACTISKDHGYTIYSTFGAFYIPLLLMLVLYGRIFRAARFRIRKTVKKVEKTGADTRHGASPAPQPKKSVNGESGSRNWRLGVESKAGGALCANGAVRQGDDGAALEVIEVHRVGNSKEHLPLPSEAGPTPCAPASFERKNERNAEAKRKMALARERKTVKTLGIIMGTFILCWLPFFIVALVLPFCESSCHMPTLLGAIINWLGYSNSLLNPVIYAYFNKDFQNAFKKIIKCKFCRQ
Kind of experiment: Binding affinity towards 5-hydroxytryptamine 1A receptor.

Experiment [6] has as its target T2, Gonadotropin-releasing hormone receptor (Homo sapiens) (UniProt P30968).
T2 sequence (whole entry): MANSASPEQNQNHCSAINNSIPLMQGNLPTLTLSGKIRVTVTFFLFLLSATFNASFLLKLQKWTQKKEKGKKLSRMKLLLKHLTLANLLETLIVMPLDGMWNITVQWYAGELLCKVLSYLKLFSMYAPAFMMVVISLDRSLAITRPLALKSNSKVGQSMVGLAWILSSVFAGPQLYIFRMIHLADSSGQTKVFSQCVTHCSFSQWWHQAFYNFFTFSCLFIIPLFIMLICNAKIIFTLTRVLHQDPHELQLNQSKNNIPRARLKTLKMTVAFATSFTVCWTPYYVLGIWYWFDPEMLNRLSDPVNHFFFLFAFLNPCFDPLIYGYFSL
Kind of experiment: Binding affinity towards GnRH receptor.

Experiment [7] addresses 5-hydroxytryptamine receptor 2A (Homo sapiens) (UniProt P28223). Nature of the experiment: Binding affinity towards 5-hydroxytryptamine 2A receptor.
Experiment [8] addresses T3, 5-hydroxytryptamine receptor 2C (Homo sapiens) (UniProt P28335).
T3 sequence (whole entry): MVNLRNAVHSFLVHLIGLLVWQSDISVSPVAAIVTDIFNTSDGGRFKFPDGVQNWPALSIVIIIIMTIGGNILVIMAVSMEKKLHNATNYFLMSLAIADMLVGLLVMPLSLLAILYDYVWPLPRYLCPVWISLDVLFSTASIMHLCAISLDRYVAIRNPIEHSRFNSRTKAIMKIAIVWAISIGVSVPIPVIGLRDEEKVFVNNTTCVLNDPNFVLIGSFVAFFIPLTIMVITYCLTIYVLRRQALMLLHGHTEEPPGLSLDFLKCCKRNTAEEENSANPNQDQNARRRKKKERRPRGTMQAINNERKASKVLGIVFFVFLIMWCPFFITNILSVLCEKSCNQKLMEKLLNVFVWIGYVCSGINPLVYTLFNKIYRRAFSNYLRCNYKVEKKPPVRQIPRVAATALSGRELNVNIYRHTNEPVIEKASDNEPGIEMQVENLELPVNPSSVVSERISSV
Nature of the experiment: Binding affinity towards 5-hydroxytryptamine 2C receptor.

Experiment [9] deals with T4, Neuromedin-K receptor (Homo sapiens) (UniProt P29371).
T4 sequence (whole entry): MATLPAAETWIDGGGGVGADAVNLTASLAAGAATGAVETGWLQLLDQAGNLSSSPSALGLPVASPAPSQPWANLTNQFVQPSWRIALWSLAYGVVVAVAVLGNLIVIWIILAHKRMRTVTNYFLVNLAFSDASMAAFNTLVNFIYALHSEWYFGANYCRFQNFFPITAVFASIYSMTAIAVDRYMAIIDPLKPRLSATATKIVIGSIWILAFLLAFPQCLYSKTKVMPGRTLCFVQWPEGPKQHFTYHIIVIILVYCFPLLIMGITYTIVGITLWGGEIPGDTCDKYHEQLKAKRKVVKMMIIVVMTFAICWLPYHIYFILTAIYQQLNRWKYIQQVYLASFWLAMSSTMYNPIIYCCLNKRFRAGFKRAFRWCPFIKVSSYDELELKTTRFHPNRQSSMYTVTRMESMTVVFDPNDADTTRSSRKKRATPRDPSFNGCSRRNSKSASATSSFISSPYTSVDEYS
Kind of experiment: Binding affinity towards NK3 receptor.

In experiment [10] the target is T5, Substance-K receptor (Homo sapiens) (UniProt P21452).
T5 sequence (whole entry): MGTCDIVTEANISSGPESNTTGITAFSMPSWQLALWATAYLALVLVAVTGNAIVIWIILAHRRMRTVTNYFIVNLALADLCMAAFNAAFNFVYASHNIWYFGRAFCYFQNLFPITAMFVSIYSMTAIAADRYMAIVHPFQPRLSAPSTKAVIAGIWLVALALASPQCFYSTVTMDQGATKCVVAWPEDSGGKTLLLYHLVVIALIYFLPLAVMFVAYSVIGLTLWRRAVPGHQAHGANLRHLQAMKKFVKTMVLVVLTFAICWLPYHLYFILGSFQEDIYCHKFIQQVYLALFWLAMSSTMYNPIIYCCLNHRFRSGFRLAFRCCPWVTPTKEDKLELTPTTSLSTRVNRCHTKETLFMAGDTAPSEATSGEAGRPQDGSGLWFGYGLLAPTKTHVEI
Nature of the experiment: Binding affinity towards NK2 receptor.

In experiment [11] the target is Substance-P receptor (Homo sapiens) (UniProt P25103). Kind of experiment: Binding affinity towards human NK1 receptor.
Chain of Substance-P receptor (Homo sapiens) (P25103 whole entry): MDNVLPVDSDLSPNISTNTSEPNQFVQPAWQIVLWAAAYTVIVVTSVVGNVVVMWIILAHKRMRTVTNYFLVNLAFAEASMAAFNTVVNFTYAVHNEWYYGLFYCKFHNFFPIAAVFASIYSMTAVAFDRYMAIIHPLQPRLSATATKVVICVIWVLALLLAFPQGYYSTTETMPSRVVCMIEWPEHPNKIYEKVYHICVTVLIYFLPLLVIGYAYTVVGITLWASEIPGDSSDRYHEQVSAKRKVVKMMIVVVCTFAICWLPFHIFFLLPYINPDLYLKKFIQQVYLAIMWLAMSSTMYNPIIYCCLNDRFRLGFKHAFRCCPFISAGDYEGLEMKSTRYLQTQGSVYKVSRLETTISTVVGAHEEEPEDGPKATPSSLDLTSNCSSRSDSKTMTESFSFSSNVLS
Experiment [12] has as its target T6, Neuropeptide Y receptor type 5 (Homo sapiens) (UniProt Q15761).
T6 sequence (whole entry): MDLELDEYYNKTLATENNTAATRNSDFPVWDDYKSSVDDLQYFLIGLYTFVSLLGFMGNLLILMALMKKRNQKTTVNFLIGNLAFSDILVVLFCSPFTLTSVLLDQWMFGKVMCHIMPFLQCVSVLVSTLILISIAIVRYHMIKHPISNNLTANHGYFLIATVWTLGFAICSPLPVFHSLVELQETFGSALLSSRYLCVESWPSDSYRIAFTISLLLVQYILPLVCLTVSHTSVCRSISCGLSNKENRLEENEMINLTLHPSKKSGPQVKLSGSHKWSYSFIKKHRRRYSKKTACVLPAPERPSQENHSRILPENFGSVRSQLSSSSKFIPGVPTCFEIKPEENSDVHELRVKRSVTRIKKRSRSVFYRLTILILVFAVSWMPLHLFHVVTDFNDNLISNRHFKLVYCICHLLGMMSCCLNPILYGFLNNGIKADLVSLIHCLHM
Nature of the experiment: Binding affinity towards NPY5 receptor.

In experiment [13] the target is T7, Neuropeptide Y receptor type 1 (Homo sapiens) (UniProt P25929).
T7 sequence (whole entry): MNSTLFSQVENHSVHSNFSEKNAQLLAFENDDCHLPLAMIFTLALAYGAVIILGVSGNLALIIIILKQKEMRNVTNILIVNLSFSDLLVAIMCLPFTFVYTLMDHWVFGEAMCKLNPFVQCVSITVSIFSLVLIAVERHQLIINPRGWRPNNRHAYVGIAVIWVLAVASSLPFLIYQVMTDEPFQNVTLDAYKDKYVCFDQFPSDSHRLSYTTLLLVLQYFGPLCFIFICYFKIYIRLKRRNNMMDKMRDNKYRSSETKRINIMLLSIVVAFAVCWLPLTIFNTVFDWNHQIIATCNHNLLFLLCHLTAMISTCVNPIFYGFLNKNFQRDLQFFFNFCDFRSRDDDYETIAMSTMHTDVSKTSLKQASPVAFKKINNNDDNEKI
Nature of the experiment: Binding affinity towards NPY1 receptor.

For experiment [14], the target named is C-C chemokine receptor type 5 (Homo sapiens) (UniProt P51681). Nature of the experiment: Binding affinity towards CCR5 receptor.
Chain of C-C chemokine receptor type 5 (Homo sapiens) (P51681 whole entry, looked up): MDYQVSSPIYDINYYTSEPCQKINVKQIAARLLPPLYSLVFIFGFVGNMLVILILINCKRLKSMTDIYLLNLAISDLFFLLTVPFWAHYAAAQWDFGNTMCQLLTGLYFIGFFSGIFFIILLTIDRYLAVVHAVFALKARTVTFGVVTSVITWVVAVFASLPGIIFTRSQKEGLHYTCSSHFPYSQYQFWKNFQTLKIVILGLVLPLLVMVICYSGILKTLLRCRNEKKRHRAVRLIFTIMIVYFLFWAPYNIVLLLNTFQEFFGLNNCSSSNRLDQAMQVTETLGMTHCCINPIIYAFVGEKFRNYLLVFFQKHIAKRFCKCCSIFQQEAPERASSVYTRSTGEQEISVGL
Experiment [15] addresses T8, C-X-C chemokine receptor type 3 (Homo sapiens) (UniProt P49682).
T8 sequence (whole entry): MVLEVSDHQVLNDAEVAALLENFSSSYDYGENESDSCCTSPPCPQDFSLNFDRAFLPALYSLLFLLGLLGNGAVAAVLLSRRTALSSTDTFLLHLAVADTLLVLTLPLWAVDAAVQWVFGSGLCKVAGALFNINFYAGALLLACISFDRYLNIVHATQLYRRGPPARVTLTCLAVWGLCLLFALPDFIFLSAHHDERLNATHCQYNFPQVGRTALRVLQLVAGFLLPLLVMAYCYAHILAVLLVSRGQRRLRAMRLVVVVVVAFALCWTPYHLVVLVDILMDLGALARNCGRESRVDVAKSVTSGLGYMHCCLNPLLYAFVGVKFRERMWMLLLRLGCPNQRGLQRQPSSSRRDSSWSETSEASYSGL
Nature of the experiment: Binding affinity towards CXCR3 receptor.

In experiment [16] the target is C-C chemokine receptor type 2 (Homo sapiens) (UniProt P41597). Nature of the experiment: Binding affinity towards CCR2 receptor.
Chain of C-C chemokine receptor type 2 (Homo sapiens) (P41597 whole entry, looked up): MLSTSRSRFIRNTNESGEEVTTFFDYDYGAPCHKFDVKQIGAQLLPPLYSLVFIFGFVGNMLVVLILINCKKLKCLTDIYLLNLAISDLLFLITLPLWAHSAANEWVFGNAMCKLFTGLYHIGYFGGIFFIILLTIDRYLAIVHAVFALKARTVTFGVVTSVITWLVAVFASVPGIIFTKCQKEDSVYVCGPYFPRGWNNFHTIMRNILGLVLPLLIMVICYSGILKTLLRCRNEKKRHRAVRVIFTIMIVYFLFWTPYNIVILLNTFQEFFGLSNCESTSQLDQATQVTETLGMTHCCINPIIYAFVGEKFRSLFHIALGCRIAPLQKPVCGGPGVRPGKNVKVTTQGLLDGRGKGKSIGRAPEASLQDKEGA
In experiment [17] the target is T9, C-C chemokine receptor type 1 (Homo sapiens) (UniProt P32246).
T9 sequence (whole entry): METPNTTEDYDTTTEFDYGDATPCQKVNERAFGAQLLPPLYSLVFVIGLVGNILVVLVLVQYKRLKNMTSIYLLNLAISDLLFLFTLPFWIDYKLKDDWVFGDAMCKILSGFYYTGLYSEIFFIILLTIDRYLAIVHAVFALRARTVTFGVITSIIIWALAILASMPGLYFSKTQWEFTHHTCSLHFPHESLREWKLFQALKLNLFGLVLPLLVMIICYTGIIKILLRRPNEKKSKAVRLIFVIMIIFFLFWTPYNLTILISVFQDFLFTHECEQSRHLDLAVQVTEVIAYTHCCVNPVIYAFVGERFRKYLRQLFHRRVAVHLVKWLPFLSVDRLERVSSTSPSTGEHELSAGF
Nature of the experiment: Binding affinity towards CCR1 receptor.

Experiment [18] concerns the target C-X-C chemokine receptor type 4 (Homo sapiens) (UniProt P61073). Kind of experiment: Binding affinity towards CXCR4 receptor.
Experiment [19] addresses T10, C-C chemokine receptor type 3 (Homo sapiens) (UniProt P51677).
T10 sequence (whole entry): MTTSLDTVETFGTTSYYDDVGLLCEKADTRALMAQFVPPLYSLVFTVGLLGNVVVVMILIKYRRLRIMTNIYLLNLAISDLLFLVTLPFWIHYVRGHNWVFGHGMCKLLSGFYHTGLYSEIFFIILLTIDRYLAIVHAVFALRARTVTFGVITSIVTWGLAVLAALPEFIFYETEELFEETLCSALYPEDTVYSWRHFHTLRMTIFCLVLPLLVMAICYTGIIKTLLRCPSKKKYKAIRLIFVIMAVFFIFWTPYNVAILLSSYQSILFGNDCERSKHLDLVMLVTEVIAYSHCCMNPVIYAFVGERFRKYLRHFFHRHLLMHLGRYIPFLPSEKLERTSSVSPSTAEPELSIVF
Kind of experiment: Binding affinity towards CCR3 receptor.

Chain of 5-hydroxytryptamine receptor 7 (Homo sapiens) (P34969 whole entry): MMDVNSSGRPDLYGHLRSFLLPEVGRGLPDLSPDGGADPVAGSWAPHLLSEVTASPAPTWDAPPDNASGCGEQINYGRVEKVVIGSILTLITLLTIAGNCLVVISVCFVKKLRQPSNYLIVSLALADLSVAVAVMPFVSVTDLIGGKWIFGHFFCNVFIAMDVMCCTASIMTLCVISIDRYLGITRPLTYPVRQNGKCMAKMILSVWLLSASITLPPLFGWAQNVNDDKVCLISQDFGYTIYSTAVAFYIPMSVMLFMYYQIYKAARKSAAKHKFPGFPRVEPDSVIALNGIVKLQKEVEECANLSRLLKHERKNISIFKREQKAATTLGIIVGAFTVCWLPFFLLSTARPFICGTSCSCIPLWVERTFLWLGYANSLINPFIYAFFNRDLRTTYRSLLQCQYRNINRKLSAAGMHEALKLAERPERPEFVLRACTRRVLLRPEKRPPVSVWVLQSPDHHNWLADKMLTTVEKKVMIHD
Chain of 5-hydroxytryptamine receptor 2A (Homo sapiens) (P28223 whole entry): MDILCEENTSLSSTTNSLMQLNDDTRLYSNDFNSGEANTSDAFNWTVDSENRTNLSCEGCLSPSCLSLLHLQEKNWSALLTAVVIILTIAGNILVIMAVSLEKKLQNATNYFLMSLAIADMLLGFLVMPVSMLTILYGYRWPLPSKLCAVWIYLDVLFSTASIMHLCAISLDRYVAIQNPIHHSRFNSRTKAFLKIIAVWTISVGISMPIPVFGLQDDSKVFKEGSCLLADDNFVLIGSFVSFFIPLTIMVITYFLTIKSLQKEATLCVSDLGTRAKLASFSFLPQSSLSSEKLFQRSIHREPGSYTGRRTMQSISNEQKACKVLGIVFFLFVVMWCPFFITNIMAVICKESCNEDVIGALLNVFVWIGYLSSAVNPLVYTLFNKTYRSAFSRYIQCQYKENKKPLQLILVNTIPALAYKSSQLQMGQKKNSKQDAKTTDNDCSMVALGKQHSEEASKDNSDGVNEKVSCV
Chain of Melanocortin receptor 4 (Homo sapiens) (P32245 whole entry): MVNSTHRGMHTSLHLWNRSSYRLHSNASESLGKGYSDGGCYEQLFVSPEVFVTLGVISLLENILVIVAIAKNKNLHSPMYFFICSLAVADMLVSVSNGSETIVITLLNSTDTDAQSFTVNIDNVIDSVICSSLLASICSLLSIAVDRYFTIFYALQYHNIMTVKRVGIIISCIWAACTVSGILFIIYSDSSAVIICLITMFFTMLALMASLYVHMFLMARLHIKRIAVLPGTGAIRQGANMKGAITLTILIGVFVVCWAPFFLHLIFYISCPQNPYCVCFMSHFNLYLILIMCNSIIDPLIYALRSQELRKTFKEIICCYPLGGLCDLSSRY
Chain of C-X-C chemokine receptor type 4 (Homo sapiens) (P61073 whole entry): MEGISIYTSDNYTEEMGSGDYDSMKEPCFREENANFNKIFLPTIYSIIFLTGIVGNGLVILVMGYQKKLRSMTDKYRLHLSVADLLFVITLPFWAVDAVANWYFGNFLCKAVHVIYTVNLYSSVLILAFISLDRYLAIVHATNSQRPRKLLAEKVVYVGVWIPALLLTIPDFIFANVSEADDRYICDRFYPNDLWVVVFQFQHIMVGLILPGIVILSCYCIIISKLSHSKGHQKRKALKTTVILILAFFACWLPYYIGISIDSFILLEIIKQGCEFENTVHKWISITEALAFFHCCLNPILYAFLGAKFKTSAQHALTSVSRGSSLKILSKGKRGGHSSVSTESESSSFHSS

Take `Cc1ccc2[nH]c(-c3ccc(Br)cc3)c(CCCCCNC3CCCCC3)c2c1`: the Activity in [1] was found to be 612 nM.
On to `CN(C)CCCc1c(-c2cccc(Br)c2)[nH]c2ccccc12`, for which the Activity is 300 nM in experiment [2], 0.7 nM in experiment [3], greater than 1 µM in experiment [4] and greater than 1 µM in experiment [5].
With `CCOC(=O)C(C)(C)c1ccc2[nH]c(-c3cc(C)cc(C)c3)c(CCCN3CCC(O)(c4ccccc4)CC3)c2c1`, the Activity in experiment [6] worked out at 52 nM.
As to `Brc1ccc(-c2[nH]c3cccc(-c4ccccc4)c3c2CCCN2CCCC2)cc1`, the Activity is 10 nM in experiment [7]; greater than 1000 nM in experiment [2]; 60 nM in experiment [8]; 635 nM in experiment [3]; greater than 1 µM in [4]; greater than 1 µM in experiment [5].
As for `COc1ccccc1N1CCN(C(=O)CCc2c(-c3ccc(Br)cc3)[nH]c3ccc(C)cc23)CC1`, the results for the Activity in experiment [9], in experiment [10] and in experiment [11] were greater than 10 µM, greater than 10 µM and 0.8 nM, respectively.
Consider `CC(NCCCc1c(-c2cccc(Br)c2)[nH]c2ccccc12)c1ccc(O)cc1` (stereo not drawn), for which the results for the Activity in [12] and in experiment [13] were 0.8 nM and greater than 10 µM, respectively.
Take `Brc1ccc(-c2[nH]c3ccc4ccccc4c3c2CCCNC2CCC(c3ccccc3)C2)cc1` (stereo not drawn): the Activity in experiment [14] was 1190 nM; in experiment [15], greater than 10 µM; in [16], greater than 10 µM; in experiment [17], greater than 10 µM; in [18] it was 1520 nM; in experiment [19] it was 920 nM.
